Experimental data taken from ChEMBL document CHEMBL1201862, “PubChem BioAssay data set” (2004).
The source made the active and inactive calls.

Key:
Vero = assay: viability of Vero cells under compound – cytotoxicity control for flavivirus capping enzyme inhibitors (AID 588742); type: functional; conditions: Chlorocebus sabaeus
[1] = target: T1, Replicative DNA helicase DnaB (Mycobacterium tuberculosis, UniProt P9WMR3); assay: DnaB intein splicing inhibitors, dose response, biochemical, cell-free fluorescence (AID 449749); type: functional
T1 sequence (P9WMR3 whole entry): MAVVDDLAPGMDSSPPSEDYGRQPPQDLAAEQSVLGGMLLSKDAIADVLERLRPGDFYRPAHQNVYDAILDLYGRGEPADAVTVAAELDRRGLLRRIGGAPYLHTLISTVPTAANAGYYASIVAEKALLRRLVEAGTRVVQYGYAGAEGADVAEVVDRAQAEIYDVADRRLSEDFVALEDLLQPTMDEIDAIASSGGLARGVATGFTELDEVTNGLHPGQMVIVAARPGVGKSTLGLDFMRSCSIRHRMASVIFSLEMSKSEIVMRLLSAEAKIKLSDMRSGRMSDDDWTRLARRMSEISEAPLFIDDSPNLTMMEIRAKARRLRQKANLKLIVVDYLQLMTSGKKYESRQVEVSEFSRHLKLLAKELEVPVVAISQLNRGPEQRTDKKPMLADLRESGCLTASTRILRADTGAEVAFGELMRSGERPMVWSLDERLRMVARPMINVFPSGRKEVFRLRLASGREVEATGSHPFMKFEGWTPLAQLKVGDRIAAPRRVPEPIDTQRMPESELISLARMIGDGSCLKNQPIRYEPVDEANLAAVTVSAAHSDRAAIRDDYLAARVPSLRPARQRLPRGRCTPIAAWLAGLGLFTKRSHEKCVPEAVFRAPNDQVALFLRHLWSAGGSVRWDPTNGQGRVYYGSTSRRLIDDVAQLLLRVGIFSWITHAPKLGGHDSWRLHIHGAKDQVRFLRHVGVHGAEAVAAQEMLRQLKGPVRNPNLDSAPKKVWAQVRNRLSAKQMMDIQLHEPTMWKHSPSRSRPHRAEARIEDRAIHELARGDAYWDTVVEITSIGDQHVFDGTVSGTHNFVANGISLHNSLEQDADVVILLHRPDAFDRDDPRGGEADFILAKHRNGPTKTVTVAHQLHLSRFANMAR

Phospholipase A2 = Phospholipase A2 (Homo sapiens, UniProt P04054); type: functional;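 further: confirmatory dose-response counterscreen on phospholipase A2, testing hits that came from an ultra-high-throughput screen for ATG4B inhibitors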
[2] = target: T2, Long-chain-fatty-acid--AMP ligase FadD28 (Mycobacterium tuberculosis, UniProt P9WQ59); assay: Fluorescence polarization aasay to screen for inhibitors that compete for the binding of FadD28 to a bisubstrate Measured in Biochemical System Using Plate Reader - 2147-01_Inhibitor_Dose_CherryPick_Activity.; type: functional, Mycobacterium tuberculosis H37Rv
T2 sequence (P9WQ59 whole entry): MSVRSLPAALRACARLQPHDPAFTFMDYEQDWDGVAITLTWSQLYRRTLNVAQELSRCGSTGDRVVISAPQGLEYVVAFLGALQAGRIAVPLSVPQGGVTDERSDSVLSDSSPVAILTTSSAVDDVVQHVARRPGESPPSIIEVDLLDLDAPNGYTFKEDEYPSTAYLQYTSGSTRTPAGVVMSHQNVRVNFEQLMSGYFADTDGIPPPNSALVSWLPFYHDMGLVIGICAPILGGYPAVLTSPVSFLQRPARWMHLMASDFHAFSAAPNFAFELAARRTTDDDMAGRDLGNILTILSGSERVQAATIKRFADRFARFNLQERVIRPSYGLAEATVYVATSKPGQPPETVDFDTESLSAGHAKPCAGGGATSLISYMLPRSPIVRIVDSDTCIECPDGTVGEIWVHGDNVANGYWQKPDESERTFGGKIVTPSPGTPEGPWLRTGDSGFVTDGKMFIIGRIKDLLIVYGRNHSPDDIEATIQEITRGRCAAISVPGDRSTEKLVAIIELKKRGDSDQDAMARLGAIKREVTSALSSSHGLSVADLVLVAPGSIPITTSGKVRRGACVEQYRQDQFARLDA

[3] = target: Serine/threonine-protein kinase PLK3 (Homo sapiens, UniProt Q9H4B4); type: functional
[4] = target: Inhibitor of nuclear factor kappa-B kinase subunit alpha (Homo sapiens, UniProt O15111); type: functional
[5] = target: Protein kinase C delta type (Homo sapiens, UniProt Q05655); type: functional
Ephrin type-A receptor 2 = Ephrin type-A receptor 2 (Homo sapiens, UniProt P29317); type: functional;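 further: EPHA2 tested as one member of a kinome-wide kinase panel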
[6] = target: Serine/threonine-protein kinase pim-2 (Homo sapiens, UniProt Q9P1W9); type: functional;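 further: value comes from a broad kinase panel profiling study in which PIM2 was one of the panel members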
[7] = target: Serine/threonine-protein kinase PLK4 (Homo sapiens, UniProt O00444); type: functional;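 further: PLK4 measured as one member of a kinome-wide kinase profiling panel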
[8] = target: Receptor tyrosine-protein kinase erbB-4 (Homo sapiens, UniProt Q15303); type: functional;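 further: ERBB4 member of a kinome-wide kinase profiling panel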
[9] = target: MAP/microtubule affinity-regulating kinase 3 (Homo sapiens, UniProt P27448); type: functional;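 further: MARK3 affinity measured as one member of a kinome panel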
[10] = target: Serine/threonine-protein kinase 3 (Homo sapiens, UniProt Q13188); type: functional;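 further: measured as one member of a kinome-wide kinase panel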
[11] = target: Serine/threonine-protein kinase PLK1 (Homo sapiens, UniProt P53350); type: functional;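 further: PLK1 measured as one member of a kinome-wide profiling panel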
[12] = target: Non-receptor tyrosine-protein kinase TYK2 (Homo sapiens, UniProt P29597); type: functional
[13] = target: Serine/threonine-protein kinase MRCK alpha (Homo sapiens, UniProt Q5VT25); type: functional
[14] = target: Cyclin-dependent kinase 7 (Homo sapiens, UniProt P50613); type: functional;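 further: value comes from a kinome-wide kinase profiling panel in which CDK7 is one member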
[15] = target: Serine/threonine-protein kinase D3 (Homo sapiens, UniProt O94806); type: functional;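 further: determined within a kinase panel screen, with PRKCN as the panel member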
[16] = target: Cyclin-dependent kinase 8 (Homo sapiens, UniProt P49336); assay: Navigating the Kinome. Panel member name: CDK8; type: functional
[17] = target: Protein kinase C theta type (Homo sapiens, UniProt Q04759); assay: Navigating the Kinome. Panel member name: PRKCQ; type: functional
[18] = target: Leukocyte tyrosine kinase receptor (Homo sapiens, UniProt P29376); assay: Navigating the Kinome. Panel member name: LTK; type: functional
[19] = target: Macrophage-stimulating protein receptor (Homo sapiens, UniProt Q04912); assay: Navigating the Kinome. Panel member name: MST1R; type: functional
[20] = target: Platelet-derived growth factor receptor alpha (Homo sapiens, UniProt P16234); assay: Navigating the Kinome. Panel member name: PDGFRA; type: functional
[21] = target: Tyrosine-protein kinase receptor TYRO3 (Homo sapiens, UniProt Q06418); type: functional;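 further: TYRO3 value obtained as one member of a kinome-wide profiling panel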
[22] = target: Serine/threonine-protein kinase TAO1 (Homo sapiens, UniProt Q7L7X3); type: functional
Activated CDC42 kinase 1 = Activated CDC42 kinase 1 (Homo sapiens, UniProt Q07912); assay: Navigating the Kinome. Panel member name: ACK1; type: functional
Activated CDC42 kinase 1, sequence (Q07912 whole entry): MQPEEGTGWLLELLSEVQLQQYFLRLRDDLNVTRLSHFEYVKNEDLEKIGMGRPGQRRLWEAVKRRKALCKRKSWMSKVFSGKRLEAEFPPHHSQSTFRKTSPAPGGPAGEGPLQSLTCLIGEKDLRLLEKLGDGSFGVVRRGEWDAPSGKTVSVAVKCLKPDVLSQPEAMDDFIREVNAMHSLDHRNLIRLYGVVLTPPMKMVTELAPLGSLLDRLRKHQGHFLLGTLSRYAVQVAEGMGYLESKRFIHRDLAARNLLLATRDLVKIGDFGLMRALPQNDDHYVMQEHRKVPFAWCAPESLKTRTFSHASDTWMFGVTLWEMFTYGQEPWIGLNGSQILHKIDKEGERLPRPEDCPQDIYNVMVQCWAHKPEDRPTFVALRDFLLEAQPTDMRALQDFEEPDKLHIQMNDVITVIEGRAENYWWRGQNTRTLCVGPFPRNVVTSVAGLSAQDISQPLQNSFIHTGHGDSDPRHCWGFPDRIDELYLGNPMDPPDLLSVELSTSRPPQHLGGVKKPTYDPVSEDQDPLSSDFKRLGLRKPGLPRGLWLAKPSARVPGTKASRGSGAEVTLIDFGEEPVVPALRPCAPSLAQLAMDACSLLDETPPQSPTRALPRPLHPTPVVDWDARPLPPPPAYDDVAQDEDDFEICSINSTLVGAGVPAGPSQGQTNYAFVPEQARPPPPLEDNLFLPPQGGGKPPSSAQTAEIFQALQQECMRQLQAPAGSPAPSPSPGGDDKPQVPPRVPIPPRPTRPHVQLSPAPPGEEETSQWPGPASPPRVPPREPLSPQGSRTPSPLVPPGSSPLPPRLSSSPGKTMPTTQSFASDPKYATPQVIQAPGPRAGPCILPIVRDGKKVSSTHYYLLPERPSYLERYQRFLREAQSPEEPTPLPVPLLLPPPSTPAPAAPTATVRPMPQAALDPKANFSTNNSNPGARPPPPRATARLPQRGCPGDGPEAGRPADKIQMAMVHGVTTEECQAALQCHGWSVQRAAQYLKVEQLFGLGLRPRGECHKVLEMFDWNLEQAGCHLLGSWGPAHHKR

Serine/threonine-protein kinase D3, sequence (O94806 whole entry): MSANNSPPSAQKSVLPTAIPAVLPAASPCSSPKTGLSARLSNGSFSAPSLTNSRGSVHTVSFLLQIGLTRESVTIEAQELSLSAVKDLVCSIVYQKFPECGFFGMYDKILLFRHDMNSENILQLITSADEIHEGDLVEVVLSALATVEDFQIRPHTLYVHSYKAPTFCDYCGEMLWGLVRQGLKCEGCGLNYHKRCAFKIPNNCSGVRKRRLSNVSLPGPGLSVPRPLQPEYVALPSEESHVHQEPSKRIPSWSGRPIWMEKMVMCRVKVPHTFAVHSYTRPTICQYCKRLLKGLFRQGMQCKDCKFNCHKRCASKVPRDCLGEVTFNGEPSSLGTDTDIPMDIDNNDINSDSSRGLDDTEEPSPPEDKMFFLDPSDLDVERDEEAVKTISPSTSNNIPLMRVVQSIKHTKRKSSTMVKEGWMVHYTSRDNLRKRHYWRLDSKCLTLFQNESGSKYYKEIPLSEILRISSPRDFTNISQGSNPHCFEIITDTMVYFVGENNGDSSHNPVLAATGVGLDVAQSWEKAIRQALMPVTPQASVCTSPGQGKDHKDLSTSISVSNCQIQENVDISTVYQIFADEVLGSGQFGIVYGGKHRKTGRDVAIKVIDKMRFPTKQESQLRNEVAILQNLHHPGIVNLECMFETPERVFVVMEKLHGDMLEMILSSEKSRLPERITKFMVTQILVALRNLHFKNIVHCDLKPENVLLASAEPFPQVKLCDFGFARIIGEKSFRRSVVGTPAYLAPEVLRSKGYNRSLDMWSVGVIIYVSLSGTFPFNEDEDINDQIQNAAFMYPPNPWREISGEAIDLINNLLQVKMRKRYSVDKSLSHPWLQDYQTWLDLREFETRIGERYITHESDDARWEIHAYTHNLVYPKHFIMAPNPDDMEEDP
Non-receptor tyrosine-protein kinase TYK2, sequence (P29597 whole entry): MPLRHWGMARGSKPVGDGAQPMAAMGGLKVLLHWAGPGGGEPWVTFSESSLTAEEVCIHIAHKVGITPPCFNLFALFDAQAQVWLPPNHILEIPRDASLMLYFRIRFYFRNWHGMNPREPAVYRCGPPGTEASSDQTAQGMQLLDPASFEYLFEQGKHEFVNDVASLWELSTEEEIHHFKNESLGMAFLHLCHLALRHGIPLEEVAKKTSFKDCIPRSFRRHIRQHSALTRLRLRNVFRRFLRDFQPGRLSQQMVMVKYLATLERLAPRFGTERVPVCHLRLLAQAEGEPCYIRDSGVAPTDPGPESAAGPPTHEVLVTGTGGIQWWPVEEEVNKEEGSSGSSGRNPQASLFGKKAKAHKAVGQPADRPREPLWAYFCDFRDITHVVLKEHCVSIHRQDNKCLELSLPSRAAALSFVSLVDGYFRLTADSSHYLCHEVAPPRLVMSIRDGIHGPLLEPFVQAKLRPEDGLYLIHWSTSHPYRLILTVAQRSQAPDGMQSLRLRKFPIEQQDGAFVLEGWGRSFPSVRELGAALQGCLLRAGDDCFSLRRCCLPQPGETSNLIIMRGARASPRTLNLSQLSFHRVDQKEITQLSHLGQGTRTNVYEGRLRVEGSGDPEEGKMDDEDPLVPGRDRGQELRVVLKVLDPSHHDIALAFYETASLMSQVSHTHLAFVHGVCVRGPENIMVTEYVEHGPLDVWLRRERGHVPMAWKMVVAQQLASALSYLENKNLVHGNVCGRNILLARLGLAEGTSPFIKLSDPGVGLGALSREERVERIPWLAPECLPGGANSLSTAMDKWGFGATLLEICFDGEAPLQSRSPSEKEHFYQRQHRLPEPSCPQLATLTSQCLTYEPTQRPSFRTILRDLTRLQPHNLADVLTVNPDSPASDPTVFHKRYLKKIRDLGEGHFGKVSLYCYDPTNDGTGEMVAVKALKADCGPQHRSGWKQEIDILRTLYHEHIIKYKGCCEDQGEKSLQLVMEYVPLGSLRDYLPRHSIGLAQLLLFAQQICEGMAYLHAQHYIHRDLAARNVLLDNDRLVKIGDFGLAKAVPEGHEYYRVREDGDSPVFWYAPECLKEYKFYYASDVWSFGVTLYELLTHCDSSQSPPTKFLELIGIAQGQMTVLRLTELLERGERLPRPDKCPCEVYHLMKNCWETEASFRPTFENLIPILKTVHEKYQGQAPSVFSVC
Cyclin-dependent kinase 8, sequence (P49336 whole entry): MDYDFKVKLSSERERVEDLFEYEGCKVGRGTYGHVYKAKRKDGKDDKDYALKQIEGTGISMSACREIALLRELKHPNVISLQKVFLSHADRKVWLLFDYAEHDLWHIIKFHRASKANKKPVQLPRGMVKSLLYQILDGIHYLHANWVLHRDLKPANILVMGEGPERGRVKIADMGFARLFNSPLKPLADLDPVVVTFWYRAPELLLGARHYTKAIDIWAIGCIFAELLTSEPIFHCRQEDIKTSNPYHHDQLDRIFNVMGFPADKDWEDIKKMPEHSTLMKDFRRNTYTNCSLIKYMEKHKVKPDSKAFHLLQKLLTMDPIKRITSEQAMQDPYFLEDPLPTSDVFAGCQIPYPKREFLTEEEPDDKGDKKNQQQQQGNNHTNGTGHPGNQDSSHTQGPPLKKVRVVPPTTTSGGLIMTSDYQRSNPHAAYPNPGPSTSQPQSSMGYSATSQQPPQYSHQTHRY
Protein kinase C delta type, sequence (Q05655 whole entry): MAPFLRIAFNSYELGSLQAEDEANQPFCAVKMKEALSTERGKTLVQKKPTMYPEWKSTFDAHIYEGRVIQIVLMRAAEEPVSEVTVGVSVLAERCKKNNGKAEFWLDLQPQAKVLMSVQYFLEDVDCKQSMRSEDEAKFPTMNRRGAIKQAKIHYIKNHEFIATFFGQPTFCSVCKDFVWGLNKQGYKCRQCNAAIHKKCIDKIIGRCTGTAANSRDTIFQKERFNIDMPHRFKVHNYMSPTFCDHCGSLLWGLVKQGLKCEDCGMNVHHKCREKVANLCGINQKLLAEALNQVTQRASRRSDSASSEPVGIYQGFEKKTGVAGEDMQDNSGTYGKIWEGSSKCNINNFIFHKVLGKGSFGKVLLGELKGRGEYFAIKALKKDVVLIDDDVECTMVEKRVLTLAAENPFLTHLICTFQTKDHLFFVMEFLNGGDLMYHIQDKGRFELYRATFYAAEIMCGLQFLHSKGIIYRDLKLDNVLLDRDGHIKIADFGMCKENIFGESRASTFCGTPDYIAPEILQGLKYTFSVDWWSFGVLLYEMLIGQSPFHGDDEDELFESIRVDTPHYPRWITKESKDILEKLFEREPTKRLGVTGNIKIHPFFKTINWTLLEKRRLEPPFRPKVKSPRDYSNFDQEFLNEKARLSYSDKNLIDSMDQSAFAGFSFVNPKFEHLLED
Inhibitor of nuclear factor kappa-B kinase subunit alpha, sequence (O15111 whole entry): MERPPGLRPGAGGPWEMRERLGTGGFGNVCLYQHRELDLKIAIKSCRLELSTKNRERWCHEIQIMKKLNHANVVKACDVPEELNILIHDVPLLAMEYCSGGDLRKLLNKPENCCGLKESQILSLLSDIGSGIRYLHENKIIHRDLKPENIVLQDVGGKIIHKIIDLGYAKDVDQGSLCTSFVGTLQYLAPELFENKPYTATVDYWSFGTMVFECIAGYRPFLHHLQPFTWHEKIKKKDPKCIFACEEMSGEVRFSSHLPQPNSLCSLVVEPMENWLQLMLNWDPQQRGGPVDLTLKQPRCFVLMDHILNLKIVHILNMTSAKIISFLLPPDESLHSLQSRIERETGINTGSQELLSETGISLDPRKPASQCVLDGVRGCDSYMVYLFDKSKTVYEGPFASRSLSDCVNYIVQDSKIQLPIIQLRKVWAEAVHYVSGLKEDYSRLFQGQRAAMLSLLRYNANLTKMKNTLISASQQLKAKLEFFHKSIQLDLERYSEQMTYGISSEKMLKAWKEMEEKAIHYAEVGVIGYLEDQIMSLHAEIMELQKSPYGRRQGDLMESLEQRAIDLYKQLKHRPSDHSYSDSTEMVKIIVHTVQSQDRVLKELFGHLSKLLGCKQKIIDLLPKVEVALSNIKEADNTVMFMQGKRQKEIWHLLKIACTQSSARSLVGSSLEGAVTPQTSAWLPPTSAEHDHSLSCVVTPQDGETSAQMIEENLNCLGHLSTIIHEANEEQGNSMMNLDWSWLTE

With `O=C1C=C(NCc2ccccc2)c2ccccc2C1=O` the CC50 (Vero) was 19.1 µM (active) and the AC50 [1] was > 380 µM (inconclusive).
`O=C(O)c1[nH]c2ccccc2c1C(c1cc(Cl)cc([N+](=O)[O-])c1O)c1c(C(=O)O)[nH]c2ccccc12` was tested, and the IC50 (Phospholipase A2) was 9.04 µM (active) and the AC50 [2] was 7.15 µM (active).
In the case of `CCOC(=O)c1cn(-c2ccc(O)cc2C)c2cc(-c3ccncc3)ccc2c1=O`, the Ki [3] is reported as > 7.94 µM (inactive), the Ki [4] is reported as > 3.98 µM (inactive) and the Ki [5] is reported as 0.501 µM (active). For the same compound, the Ki (Ephrin type-A receptor 2) was > 3.16 µM (inactive), the Ki [6] was > 1.58 µM (inactive) and the Ki [7] was > 3.98 µM (inactive). The Ki [8] was > 3.98 µM (inactive), the Ki [9] was > 6.31 µM (inactive) and the Ki [10] was > 7.94 µM (inactive). For the same compound, the Ki [11] was > 7.94 µM (inactive), the Ki [12] was > 2 µM (inactive) and the Ki [13] was 0.251 µM (active).
For `Cc1cc(=O)[nH]nc1-c1ccc(NC(=O)Nc2cc(C(F)(F)F)ccc2F)c(Cl)c1`, the Ki [14] was > 3.98 µM (inactive), the Ki [15] was > 3.98 µM (inactive) and the Ki [16] was 0.158 µM (active). The Ki [17] was > 2.51 µM (inactive), the Ki [18] was > 2.51 µM (inactive) and the Ki [19] was > 3.98 µM (inactive). For the same compound, the Ki [20] was 0.2 µM (active), the Ki [21] was > 3.16 µM (inactive) and the Ki [22] was > 6.31 µM (inactive). For the same compound, the Ki (Activated CDC42 kinase 1) was > 3.98 µM (inactive).
